Tested on: platelet aggregation induced by ADP
Experiment: Platelet aggregation inhibitory activity in vivo (Born aggregometer), ADP-induced
Set-up: species or system New Zealand rabbits
Conditions: Oryctolagus cuniculus, Platelet, ip, dose for 50% inhibition of ADP-induced aggregation curve; rabbits, intraperitoneal, blood 2, 4 and 6 hours after injection; read-out: platelet antiaggregant activity (AAP), DI50, ADP
Method: (§1) Determination of the platelet aggregation inhibitory activity in vivo
(§2) The activity of the above described compounds as platelet antiaggregant was tested in vivo on rabbits, by the Born aggregometer. The inhibition of the aggregation curve induced by ADP and thrombin was assessed with different drug concentrations according to the platelet reactivity. New Zealand rabbits which had been held fasting for 12 hours with water ad libitum, were anaesthetized with Nembutal in a dose of 35 mg/kg intramuscolarly. The blood was withdrawn from the carotidal arthery, before (control) and 2, 4, and 6 hours after the intraperitoneal injection of the compounds under examination (at the dose indicated below). The blood samples were taken up in a 3.8% aqueous solution of sodium citrate in a ratio 10:1 and thereupon centrifuged at 1500 r.p.m. for 10 minutes, for obtaining a PRP (platelet rich plasma). A portion of such a plasma was thereupon centrifuged at 8000 r.p.m. for 10 minutes, for obtaining a PPP (platelet lean plasma) which was used for zeroing the measuring apparatus.
(§3) From the results of said experiments, there was determined the dose of each product in mg/kg body weight able to induce a 50% inhibition of the aggregation curve (DI50) after treatment, referred to the curve obtained by the same control plasma before treatment.
(§4) In tables I and II are further indicated for each compound the method of preparation; the melting point PF in °C; the platelet antiaggregant activity (AAP) expressed in terms of DI50 in mg/kg, referred to ADP and thrombin respectively; the antithrombin activity (AT) in %; the anticoagulant activity (AC) in %; the fibrinolytic activity (FL) in %; the acute toxicity (LD50) in mice, intraperitoneally, in mg/kg, as previously defined.

| SMILES | ED50 |
| --- | --- |
| CC(C)CCOc1ccc(C(=O)NCc2ccncc2)cc1C(=O)NCc1ccncc1 [Example 63] | 42.9 mg/kg |
| CC(C)COc1ccc(C(=O)NCc2cccnc2)cc1C(=O)NCc1cccnc1 [Example 15] | 52.6 mg/kg |
| CCOc1ccc(C(=O)N(CCC(C)C)Cc2cccnc2)cc1C(=O)N(CCC(C)C)Cc1cccnc1 [Example 45] | 30.6 mg/kg |
| C=CCOc1ccc(C(=O)NCc2cccnc2)cc1C(=O)NCc1cccnc1 [Example 7] | 36.3 mg/kg |
| C=CCCCCOc1ccc(C(=O)NCc2cccnc2)cc1C(=O)NCc1cccnc1 [Example 10] | 29.4 mg/kg |
| COc1cc(C(=O)NCc2cccnc2)cc(C(=O)NCc2cccnc2)c1OC1CCCC1 [Example 20] | 35.6 mg/kg |
| COc1cc(C(=O)NCc2cccnc2)cc(C(=O)NCc2cccnc2)c1O [Example 33] | 58.4 mg/kg |
| CC=CCOc1ccc(C(=O)N(C)Cc2ccncc2)cc1C(=O)N(C)Cc1ccncc1 [Example 69] | 26.1 mg/kg |
| CC=COc1c(Cl)cc(C(=O)N(Cc2cccnc2)CC(C)(C)C)cc1C(=O)N(Cc1cccnc1)CC(C)(C)C [Example 48] | 50.3 mg/kg |
| C=CCOc1c(OC)cc(C(=O)NCc2cccnc2)cc1C(=O)NCc1cccnc1 [Example 17] | 51.7 mg/kg |
| CC(C)(C)Oc1ccc(C(=O)NCc2cccnc2)cc1C(=O)NCc1cccnc1 [Example 16] | 45.2 mg/kg |

Tested on: not listed separately
Experiment: Acute toxicity, intraperitoneal
Conditions: mouse, in vivo, ip, male Swiss mice, intraperitoneal, 7 days observation; preliminary, by graphic interpolation; read-out: acute toxicity (LD50 / DL50)
Method: The acute toxicity limit was determined intraperitoneally on male Swiss mice, weighing 20±2 g, held fasting for 18 hours with water ad libitum.
The animals were maintained under observation for 7 days of treatment, by examining the general symptomatology and noting the death sequency. The preliminary DL50 in mg/kg body weight was calculated by graphic interpolation of the results as obtained.
as §4

| SMILES | LD50 at 168 h |
| --- | --- |
| CC(C)CCOc1ccc(C(=O)NCc2ccncc2)cc1C(=O)NCc1ccncc1 [Example 63] | 185 mg/kg |
| CC(C)COc1ccc(C(=O)NCc2cccnc2)cc1C(=O)NCc1cccnc1 [Example 15] | 471 mg/kg |
| CCOc1ccc(C(=O)N(CCC(C)C)Cc2cccnc2)cc1C(=O)N(CCC(C)C)Cc1cccnc1 [Example 45] | 460 mg/kg |
| C=CCOc1ccc(C(=O)NCc2cccnc2)cc1C(=O)NCc1cccnc1 [Example 7] | 374 mg/kg |
| C=CCCCCOc1ccc(C(=O)NCc2cccnc2)cc1C(=O)NCc1cccnc1 [Example 10] | 194 mg/kg |
| COc1cc(C(=O)NCc2cccnc2)cc(C(=O)NCc2cccnc2)c1OC1CCCC1 [Example 20] | 375 mg/kg |
| COc1cc(C(=O)NCc2cccnc2)cc(C(=O)NCc2cccnc2)c1O [Example 33] | 570 mg/kg |
| CC=CCOc1ccc(C(=O)N(C)Cc2ccncc2)cc1C(=O)N(C)Cc1ccncc1 [Example 69] | 210 mg/kg |
| CC=COc1c(Cl)cc(C(=O)N(Cc2cccnc2)CC(C)(C)C)cc1C(=O)N(Cc1cccnc1)CC(C)(C)C [Example 48] | 207 mg/kg |
| C=CCOc1c(OC)cc(C(=O)NCc2cccnc2)cc1C(=O)NCc1cccnc1 [Example 17] | 298 mg/kg |
| CC(C)(C)Oc1ccc(C(=O)NCc2cccnc2)cc1C(=O)NCc1cccnc1 [Example 16] | 325 mg/kg |

Tested on: platelet aggregation induced by thrombin
Experiment: Platelet aggregation inhibitory activity in vivo (Born aggregometer), thrombin-induced
Set-up: species or system New Zealand rabbits
Conditions: Oryctolagus cuniculus, Platelet, ip, dose for 50% inhibition of thrombin-induced aggregation curve; rabbits, intraperitoneal, blood 2, 4 and 6 hours after injection; read-out: platelet antiaggregant activity (AAP), DI50, Thrombin
Method: as §1, §2, §3, §4

| SMILES | ED50 |
| --- | --- |
| CC(C)CCOc1ccc(C(=O)NCc2ccncc2)cc1C(=O)NCc1ccncc1 [Example 63] | 28.4 mg/kg |
| CC(C)COc1ccc(C(=O)NCc2cccnc2)cc1C(=O)NCc1cccnc1 [Example 15] | 33 mg/kg |
| CCOc1ccc(C(=O)N(CCC(C)C)Cc2cccnc2)cc1C(=O)N(CCC(C)C)Cc1cccnc1 [Example 45] | 22.3 mg/kg |
| C=CCOc1ccc(C(=O)NCc2cccnc2)cc1C(=O)NCc1cccnc1 [Example 7] | 19.2 mg/kg |
| C=CCCCCOc1ccc(C(=O)NCc2cccnc2)cc1C(=O)NCc1cccnc1 [Example 10] | 21.1 mg/kg |
| COc1cc(C(=O)NCc2cccnc2)cc(C(=O)NCc2cccnc2)c1OC1CCCC1 [Example 20] | 21.4 mg/kg |
| COc1cc(C(=O)NCc2cccnc2)cc(C(=O)NCc2cccnc2)c1O [Example 33] | 38.9 mg/kg |
| CC=CCOc1ccc(C(=O)N(C)Cc2ccncc2)cc1C(=O)N(C)Cc1ccncc1 [Example 69] | 19.3 mg/kg |
| CC=COc1c(Cl)cc(C(=O)N(Cc2cccnc2)CC(C)(C)C)cc1C(=O)N(Cc1cccnc1)CC(C)(C)C [Example 48] | 31.9 mg/kg |
| C=CCOc1c(OC)cc(C(=O)NCc2cccnc2)cc1C(=O)NCc1cccnc1 [Example 17] | 32.6 mg/kg |
| CC(C)(C)Oc1ccc(C(=O)NCc2cccnc2)cc1C(=O)NCc1cccnc1 [Example 16] | 30.3 mg/kg |

Tested on: thrombin-induced coagulation of platelet rich plasma
Experiment: Antithrombin activity on PRP, Hartert's thromboelastograph
Format: in vivo, New Zealand rabbits
Conditions: Oryctolagus cuniculus, Platelet, ip, percent decrease of index ma/[r+k] vs before treatment; 20 mg/kg intraperitoneal, rabbits
Method: Determination of the antithrombin activity
The antithrombin activity on the PRP (platelet rich plasma) obtained following the above described method was assessed by Hartert's thromboelastograph (Hellige model). The coagulation was induced by adding to 0.25 ml of plasma 0.06 ml of a thrombin solution (Roche Topostasin® per os) at 60 units*, pH 7.4**. The antithrombin activity was assessed in terms of a percent decrease of the index (ma/[r+k]) which was calculated from the thromboelastograph diagram, wherein r is the reaction time, k is the speed of the coagulum formation and ma is the maximum spread of the tong, after an intraperitoneal treatment with a dose of 20 mg/kg of each compound under examination, referred to the same index obtained before the treatment (control).
as §4

| SMILES | inhibition in vivo at 20 mg/kg |
| --- | --- |
| CC(C)CCOc1ccc(C(=O)NCc2ccncc2)cc1C(=O)NCc1ccncc1 [Example 63] | 29.2% |
| CC(C)COc1ccc(C(=O)NCc2cccnc2)cc1C(=O)NCc1cccnc1 [Example 15] | 25.5% |
| CCOc1ccc(C(=O)N(CCC(C)C)Cc2cccnc2)cc1C(=O)N(CCC(C)C)Cc1cccnc1 [Example 45] | 35.8% |
| C=CCOc1ccc(C(=O)NCc2cccnc2)cc1C(=O)NCc1cccnc1 [Example 7] | 51.5% |
| C=CCCCCOc1ccc(C(=O)NCc2cccnc2)cc1C(=O)NCc1cccnc1 [Example 10] | 52.6% |
| COc1cc(C(=O)NCc2cccnc2)cc(C(=O)NCc2cccnc2)c1OC1CCCC1 [Example 20] | 32.6% |
| COc1cc(C(=O)NCc2cccnc2)cc(C(=O)NCc2cccnc2)c1O [Example 33] | 20.3% |
| CC=CCOc1ccc(C(=O)N(C)Cc2ccncc2)cc1C(=O)N(C)Cc1ccncc1 [Example 69] | 48.7% |
| CC=COc1c(Cl)cc(C(=O)N(Cc2cccnc2)CC(C)(C)C)cc1C(=O)N(Cc1cccnc1)CC(C)(C)C [Example 48] | 27.6% |
| C=CCOc1c(OC)cc(C(=O)NCc2cccnc2)cc1C(=O)NCc1cccnc1 [Example 17] | 36% |
| CC(C)(C)Oc1ccc(C(=O)NCc2cccnc2)cc1C(=O)NCc1cccnc1 [Example 16] | 27.6% |

Tested on: blood coagulum
Experiment: Fibrinolytic activity, Fearnley method (lysis of blood coagulum in toto)
Format: in vivo
Conditions: Oryctolagus cuniculus, ip, 0.5 h, percent decrease of coagulum weight after 30 minutes at 37° C.; 25 mg/kg intraperitoneal, rabbits; read-out: fibrinolytic activity (FL)
Method: Determination of the fibrinolytic activity
The determination of the fibrinolytic activity was made following the Fearnley method for the lysis of the blood coagulum in toto.
0.2 ml of blood were withdrawn from the marginal vein of the ear of rabbits treated in the same way as the previously described tests, before and after an intraperitoneal injection of the compounds under test at a dose level of 25 mg/kg for each compound.
The blood samples were placed in test tubes containing 1.7 ml of phosphate buffer at pH 7.4 and 0.1 ml of thrombin (Roche Topostasin ® per os) at 50 units NIH/ml, and maintained in an ice bath. The test tubes were maintained at said temperature for 30 minutes and thereupon were transferred to a temperature controlled water bath at 37° C.
The fibrinolytic activity was determined as a percent decrease of the coagulum weight, measured after incubation for 30 minutes at 37° C.
as §4

| SMILES | fibrinolytic activity (percent decrease of coagulum weight) at 25 mg/kg |
| --- | --- |
| CC(C)CCOc1ccc(C(=O)NCc2ccncc2)cc1C(=O)NCc1ccncc1 [Example 63] | 23.2% |
| CC(C)COc1ccc(C(=O)NCc2cccnc2)cc1C(=O)NCc1cccnc1 [Example 15] | 19.8% |
| CCOc1ccc(C(=O)N(CCC(C)C)Cc2cccnc2)cc1C(=O)N(CCC(C)C)Cc1cccnc1 [Example 45] | 29.9% |
| C=CCOc1ccc(C(=O)NCc2cccnc2)cc1C(=O)NCc1cccnc1 [Example 7] | 44.7% |
| C=CCCCCOc1ccc(C(=O)NCc2cccnc2)cc1C(=O)NCc1cccnc1 [Example 10] | 43.9% |
| COc1cc(C(=O)NCc2cccnc2)cc(C(=O)NCc2cccnc2)c1OC1CCCC1 [Example 20] | 27.9% |
| COc1cc(C(=O)NCc2cccnc2)cc(C(=O)NCc2cccnc2)c1O [Example 33] | 15.5% |
| CC=CCOc1ccc(C(=O)N(C)Cc2ccncc2)cc1C(=O)N(C)Cc1ccncc1 [Example 69] | 41.6% |
| CC=COc1c(Cl)cc(C(=O)N(Cc2cccnc2)CC(C)(C)C)cc1C(=O)N(Cc1cccnc1)CC(C)(C)C [Example 48] | 20.1% |
| C=CCOc1c(OC)cc(C(=O)NCc2cccnc2)cc1C(=O)NCc1cccnc1 [Example 17] | 23% |
| CC(C)(C)Oc1ccc(C(=O)NCc2cccnc2)cc1C(=O)NCc1cccnc1 [Example 16] | 21.9% |

Tested on: CaCl2-induced plasma coagulation
Experiment: Anticoagulant activity on PRP, Hartert's thromboelastograph
Format: in vivo, New Zealand rabbits
Conditions: Oryctolagus cuniculus, ip, percent increase of total time for coagulum formation (r+k) vs before treatment; 25 mg/kg intraperitoneal, rabbits; read-out: anticoagulant activity (AC)
Method: Determination of the anticoagulant activity
The anticoagulant activity was also assessed on PRP of animals treated as described in the preceding methods, by using again Hartert's thromboelastograph method.
The plasma coagulation was induced by adding to 0.25 ml PRP a 1.29% solution of CaCl2.
The anticoagulant effect was determined as a percent increase of the total time for the coagulum formation (the index r+k can be obtained from the thromboelastograph diagram) in a plasma after treatment, referred to the same index obtained before the treatment (control). Again the dose level was 25 mg/kg for each compound under examination, intraperitoneally.
as §4

| SMILES | change in vivo at 25 mg/kg |
| --- | --- |
| CC(C)CCOc1ccc(C(=O)NCc2ccncc2)cc1C(=O)NCc1ccncc1 [Example 63] | 22.6% |
| CC(C)COc1ccc(C(=O)NCc2cccnc2)cc1C(=O)NCc1cccnc1 [Example 15] | 17.6% |
| CCOc1ccc(C(=O)N(CCC(C)C)Cc2cccnc2)cc1C(=O)N(CCC(C)C)Cc1cccnc1 [Example 45] | 16.3% |
| C=CCOc1ccc(C(=O)NCc2cccnc2)cc1C(=O)NCc1cccnc1 [Example 7] | 14.5% |
| C=CCCCCOc1ccc(C(=O)NCc2cccnc2)cc1C(=O)NCc1cccnc1 [Example 10] | 12.6% |
| COc1cc(C(=O)NCc2cccnc2)cc(C(=O)NCc2cccnc2)c1OC1CCCC1 [Example 20] | 12.9% |
| COc1cc(C(=O)NCc2cccnc2)cc(C(=O)NCc2cccnc2)c1O [Example 33] | 11.2% |
| CC=CCOc1ccc(C(=O)N(C)Cc2ccncc2)cc1C(=O)N(C)Cc1ccncc1 [Example 69] | 14.2% |
| CC=COc1c(Cl)cc(C(=O)N(Cc2cccnc2)CC(C)(C)C)cc1C(=O)N(Cc1cccnc1)CC(C)(C)C [Example 48] | 14.4% |
| C=CCOc1c(OC)cc(C(=O)NCc2cccnc2)cc1C(=O)NCc1cccnc1 [Example 17] | 14.1% |
| CC(C)(C)Oc1ccc(C(=O)NCc2cccnc2)cc1C(=O)NCc1cccnc1 [Example 16] | 13.6% |

Source: US4294833A, “Substituted 4-hydroxy-isophthalic acid picolylamides having a pharmaceutical activity in thromboembolic disorders” (Societa Italo-Britannica, priority 1977, dated 1981)
